Data: patent publication US12528774B2, “Thiosemicarbazone compounds and uses thereof” (The Regents of the University of California, priority 2019, dated 2026)

Assays:
[1] = system: electron transport chain complexes of isolated mitochondria; test: Electron flow assay in isolated mitochondria; type: biochemical, mouse; conditions: HCT-13 + Cu(II) 20 μM
Experimental: FIG. 3A: Mito Stress Test of MIAPACA2 PDAC cells treated with HCT13 (25 nM)+Cu(II) (20 μM) for 24h. FIG. 3B: electron flow assay in isolated mitochondria treated with HCT-13 (100 nM)+Cu(II) (20 μM) for 1h. FIG. 3C: viability of 143 BTK parental (wild type, WT) and ρ0 cells after 48h of the indicated HCT13 concentration+Cu(II) (20 μM) treatment, assessed with Trypan Blue Staining. FIG. 3D: 48h cell cycle histogram and plots of S-phase arrest plots in 143 BTK WT and 143 BTK ρ0 cells at 24, 48 and 72h following treatment with indicated concentrations of HCT13+Cu(II)(20 μM). (mean±SD, n=2, one-way ANOVA corrected for multiple comparisons by Bonferroni adjustment, * P<0.05; ** P<0.01; *** P<0.001). […]
Mito Stress Test and Electron Flow Assay: All oxygen consumption rate (OCR) was measured using a XF24 Analyzer (Agilent) and normalized per μg protein. […] OCR was measured before (total respiration) and after the sequential injection of 1 μM oligomycin (complex V inhibitor), 0.75 μM FCCP (uncoupler), and 1 μM of rotenone and myxothiazol (complex I and III inhibitors, respectively), as described previously (1). Mitochondrial respiration was calculated by subtracting the non-mitochondrial respiration left after rotenone and myxothiazol injection. […] OCR was measured before and after the sequential injections described in the previous paragraph. […]

[2] = system: PDAC (MIAPACA2, CFPAC-1) and PC (C4-2) cell lines; test: Cell death assays (Annexin V/PI, trypan blue) of HCT13 with ATR inhibition; type: cell-based; conditions: ATRi 250 nM VE-822, Cu(II) 20 μM, 72 h
Experimental: FIGS. 4A-4G show the chemical genomics screen identifying the replication stress response pathway as an actionable co-dependency of HCT13-treated cells. FIG. 4A: experimental design of a synthetic lethality screen using a library of protein kinase inhibitors against HCT13-treated cells in the presence of Cu(II) (20 μM). FIG. 4B: radar plot of screen results. FIG. 4C: z-score values for kinase inhibitors within the DNA damage response/replication stress response (DDR/RSR) pathway module. FIG. 4D: representative immunoblot of replication stress and cell death biomarkers in MIAPACA2 PDAC cells treated with HCT13 (10 nM)+Cu(II) (20 μM). […] (mean±SD, n=2, one-way ANOVA corrected for multiple comparisons by Bonferroni adjustment, * P<0.05; ** P<0.01; *** P<0.001; **** P<0.0001).
FIGS. 6A-6C provide the identification of resistance mechanisms to HCT13 using a synthetic lethality screen. […] (mean±SD, n=2, one-way ANOVA corrected for multiple comparisons by Bonferroni adjustment, * P<0.05; ** P<0.01; *** P<0.001; **** P<0.0001). […]
Viability/Apoptosis assay: Viable cells were measured by Trypan blue staining using vi-cell counter (Beckman Coulter, CA, USA). […]

**Q.** What does the source list for `CN(C)C(=S)N/N=C/c1nccc2cc(F)ccc12` (mixture of isomers) [HCT13, (E)-2-((6-Fluoroisoquinolin-1-yl)methylene)-N,N-dimethylhydrazine-1-carbothioamide and (Z)-2-((6-Fluoroisoquinolin-1-yl)methylene)-N,N-dimethylhydrazine-1-carbothioamide]?
**A.** mitochondrial ETC complex activity [1]: decreased activity of complexes I and II; mitochondrial ETC complex activity ([1]; listed as HCT-13): ETC Complex 1 was most dramatically affected; interaction with ATR inhibition (cell death) [2]: synergistic interaction
